Results published in publication PMC10488193, “Evaluation of the Chemical Stability, Membrane Permeability and Antiproliferative Activity of Cyclic Diarylheptanoids from European Hornbeam (Carpinus betulus L.)” (International Journal of Molecular Sciences, 2023).
“And” between values parts separate entries of the source, which are not always exact repeats. Equal values may be shown once. “Also recorded” adds a separate entry of the source. Read-outs that look alike come from different tables or passages of the source. Marks after values point to notes of the source that are not given here.

How the values were obtained:
[1] = set-up: method as in PMID 12350169; conditions: cited from earlier work
[2] = Aqueous stability at biorelevant pH values, 37 °C (UHPLC-DAD); assay type: physicochemical; conditions: for half-life at 100 µM / degradation rate constant k: first-order; for half-life at 100 µM: read-out: half-life t1/2 (converted); for aqueous stability at pH 1.2, 6.8, 7.4 (in words): 37 °C, up to 81 h
Protocol: For the analysis of the samples from the chemical stability as well as the PAMPA studies, sample concentrations were determined using our previously developed ultrahigh-performance liquid chromatography–diode array detection (UHPLC-DAD) method validated for linearity, precision and accuracy. Briefly, an ACQUITY UPLC H-Class PLUS System hyphenated with a quaternary solvent delivery pump (QSM), an auto-sampler manager (FTN), a column compartment (CM) and a photodiode array (PDA) detector (Waters Corporation) was employed. Stationary phase: Acquity BEH C18 column (100 × 2.1 mm i.d., 1.7 µm; Waters Corporation), column temperature: 30 °C. The mobile phase consisted of 0.3% acetic acid in water (eluent A) and acetonitrile (eluent B). The following gradient elution was applied at a flow rate of 0.3 mL/min: 0 min 12.0% B, 19.0 min 13.5% B, 25.5 min 75.0% B, 26.0 min 100.0% B, 28.0 min 100.0% B, 28.5 min 12.0% B.
The buffers modelling the gastric fluid (pH 1.2), the intestinal fluid (pH 6.8) and the blood and the tissues (pH 7.4) were prepared as follows. Buffer pH = 1.2: 1.0 g NaCl and 3.5 mL HCl dissolved in distilled water, final volume: 500.0 mL. Buffer pH = 6.8: 20.2 g Na2HPO4∙7H2O and 3.4 g NaH2PO4∙H2O dissolved in distilled water, final volume: 1000.0 mL, pH adjustment with 0.5 M NaOH or 0.5 M HCl. Buffer pH = 7.4: one PBS tablet dissolved in 200.0 mL distilled water. The stock solutions of compounds 1–4 were prepared with dimethyl sulfoxide (DMSO) at a concentration of 10.0 mM. The stock solutions were diluted 100-fold with each buffer separately to obtain the working solutions (297.0 μL buffer + 3.0 μL stock solution). All working solutions were filtered through Phenex-RC 15 mm, 0.2 μm syringe filters (Gen-Lab Ltd., Budapest, Hungary). The samples were incubated for 81 h at 37 °C; aliquots were taken for analysis every 9 h in accordance with the time required to quantify the analytes of interest in one set of samples. The total incubation time of 81 h was applied to obtain data for ten measurement points. The previously described UHPLC-DAD method was used to examine the changes in compound concentrations (see Section 3.4).
For the determination of pH stability, the initial AUC values were compared with the data after 9 and 81 h using paired-sample t test; significant difference was reported at p < 0.05. The effects of the pH were analysed through one-way analysis of variance (ANOVA) followed by Tukey’s post hoc HSD test (p < 0.05). All experiments were performed in triplicates (n = 3).
We used the following equations to calculate the first-order reaction rate constant (k) and the half-life (t1/2) indicating the time required to reduce the concentration of diarylheptanoids by 50% [29]:ln (ct/c0) = −k × t(1) t1/2 = −ln 0.5 × k^−1(2) where ct is the concentration of the diarylheptanoids at time t, c0 is the initial concentration, k is the reaction rate constant, t is the treatment time.

[3] = PAMPA-GI; assay type: in vitro ADME; conditions: for Papp at 4 h, 100 µM: PAMPA, read-out: logPe PAMPA-GI (n = 9) (converted)
Protocol: A parallel artificial membrane permeability assay (PAMPA) was used to determine the effective permeability (Pe) for the Carpinus diarylheptanoids. Stock solutions of the isolated compounds (10 mM in DMSO) were diluted with the defined buffer (pH 7.4 for the PAMPA-BBB and pH 6.8 for the PAMPA-GI assays) to obtain the donor solutions (composition: 297.0 μL buffer + 3.0 μL stock solution). Donor solutions were filtered through Phenex-RC 15 mm, 0.2 μm syringe filters (Gen-Lab Ltd., Budapest, Hungary).
For the PAMPA-BBB test, 5 μL of porcine polar brain lipid extract (PBLE) solution (16.0 mg PBLE + 8.0 mg cholesterol dissolved in 600.0 μL n-dodecane) was applied for each well of the 96-well polycarbonate-based filter donor plates (top plate) (Multiscreen™-IP, MAIPN4510, pore size 0.45 μm; Merck). For the PAMPA-GI assay, the wells of the top plate were coated with 5 μL of the mixture of 8.0 mg phosphatidylcholine + 4.0 mg cholesterol dissolved in 300.0 μL n-dodecane. The 150.0 μL aliquots of the filtrated donor solutions were placed on the membrane. The 96-well PTFE acceptor plates (bottom plates) (Multiscreen Acceptor Plate, MSSACCEPTOR; Merck), were filled with 300.0 μL buffer solution (0.01 M PBS buffer, pH 7.4). […]
After the incubation, the plates were separated and the compound concentrations in the donor (CD(t)) and acceptor (CA(t)) solutions were determined using the aforementioned UHPLC-DAD method (see Section 3.4). […] The effective permeability and the membrane retention in the PAMPA-BBB and the PAMPA GI experiments were calculated by Equations (3) and (4), respectively:(3) Pe=−2.303/A(t−τSS)·VA·VD/VA+VD·lg1−VA+VD/1−MR·VD×CAt/CD0 (4) Pe=−2.303/A(t−τSS))·1/1+ra·lg−ra+1+ra/1−MR×CDt/CD0 where Pe is the effective permeability coefficient (cm/s), A is the filter area (0.24 cm^2), VD and VA are the volumes in the donor (0.15 cm^3) and acceptor phases (0.30 cm^3), t is the incubation time (s), τSS is the time (s) to reach steady state (240 s), CD(t) is the concentration (mol/cm^3) of the compound in the donor phase at time t, CD(0) is the concentration (mol/cm^3) of the compound in the donor phase at time 0, MR is the estimated membrane retention factor (the estimated mole fraction of solute lost to the membrane) and ra is the sink asymmetry ratio (gradient-pH-induced), defined as:(5) ra=VD/VA×Pe(A→D)/Pe(D→A) (6) MR=1−CDt/CD0−VA/VDCAt/CD0
All experiments were performed in three triplicates on three consecutive days (n = 9); caffeine standard was used as positive, while rutin was used as negative control. Clog P values were calculated using ACD/ChemSketch (Freeware) 2 January 2020 (Advanced Chemistry Development, Inc., Toronto, ON, Canada).

[4] = sodium phosphate buffer, pH 6.8, 37 °C

| relative concentration compared to the initial value ([2]; 9 h, pH 1.2, 37 °C) | relative concentration compared to the initial value ([2]; 9 h, pH 6.8, 37 °C) | relative concentration compared to the initial value ([2]; 9 h, pH 7.4, 37 °C) | relative concentration compared to the initial value ([2]; 81 h, pH 1.2, 37 °C) | relative concentration compared to the initial value ([2]; 81 h, pH 6.8, 37 °C) | relative concentration compared to the initial value ([2]; 81 h, pH 7.4, 37 °C) | half-life at 100 µM ([2]; NaCl/HCl buffer, pH 1.2, 37 °C) [h] | degradation rate constant k ([2]; pH 1.2, 37 °C) [h⁻¹] | degradation rate constant k ([2]; pH 6.8, 37 °C) [h⁻¹] | half-life at 100 µM [2, 4] [h] | Papp at 4 h, 100 µM [3] [×10⁻⁶ cm/s] | logPe PAMPA-GI (n = 9) ([3]; donor pH 6.8, acceptor pH 7.4, 37 °C, 4 h, Pe in cm/s, n.d. = not detected in the acceptor phase) | Structure (SMILES) | antioxidant activity (in words) [1] | half-life at 100 µM ([2]; PBS, pH 7.4, 37 °C) [h] | degradation rate constant k ([2]; pH 7.4, 37 °C) [h⁻¹] | aqueous stability at pH 1.2, 6.8, 7.4 (in words) [2] |
| --- | --- | --- | --- | --- | --- | --- | --- | --- | --- | --- | --- | --- | --- | --- | --- | --- |
| 101.7 ± 4.2 ^a % | 105.2 ± 3.9 ^a % | 102.0 ± 0.9 ^a % | 100.7 ± 5.1 ^a % | 101.9 ± 6.4 ^a % | 101.5 ± 1.1 ^a % | – | – | – | – | 3.47 | – | O=C1CCc2ccc(O)c(c2)-c2cc(ccc2O)C[C@H](O)[C@H](O)[C@H]1O [Compound 2, carpinontriol B] | only weak antioxidant activity | – | – | remained intact for the whole study at all pH values; also recorded: stable at all three studied biorelevant pH values |
| 100.6 ± 6.9 ^a % | 98.9 ± 0.8 ^a % | 82.6 ± 7.7 ^#b % | 83.4 ± 5.3% and 83.4 ± 5.3 ^#b % | 93.2 ± 2.0% and 93.2 ± 2.0 ^#ab % | 46.7 ± 4.7 % | 298 | 0.00232 | 0.000838 | 827 | 6.03 | – | O=C1CCc2ccc(O)c(c2)-c2cc(ccc2O)C[C@@H](O)[C@H](O)C1 [Compound 3, giffonin X] | – | 81.6 | 0.00849 | – |
| 68.5 ± 4.5% | 105.8 ± 2.6 ^a % | 102.0 ± 3.7 ^a % | 31.0 ± 7.0% | 88.9 ± 2.0% | 103.1 ± 2.2 ^a % | 54.4 | 0.0127 | 0.00142 | 488 | – | not detected in the acceptor phase | O=C1CCC(=O)C(O)Cc2ccc(O)c(c2)-c2cc(ccc2O)C1 (stereo not drawn) [Compound 4, 3,12,17-trihydroxytricyclo [12.3.1.1^2,6]nonadeca-1(18),2(19),3,5,14,16-hexaene-8,11-dione] | – | – | – | stable only at pH 7.4 |

| Structure (SMILES) | relative concentration compared to the initial value ([2]; 9 h, pH 1.2, 37 °C) | relative concentration compared to the initial value ([2]; 9 h, pH 6.8, 37 °C) | relative concentration compared to the initial value ([2]; 9 h, pH 7.4, 37 °C) | relative concentration compared to the initial value ([2]; 81 h, pH 1.2, 37 °C) | relative concentration compared to the initial value ([2]; 81 h, pH 6.8, 37 °C) | relative concentration compared to the initial value ([2]; 81 h, pH 7.4, 37 °C) | half-life at 100 µM ([2]; NaCl/HCl buffer, pH 1.2, 37 °C) [h] | degradation rate constant k ([2]; pH 1.2, 37 °C) [h⁻¹] | degradation rate constant k ([2]; pH 6.8, 37 °C) [h⁻¹] | half-life at 100 µM [2, 4] [h] | Papp at 4 h, 100 µM [3] [×10⁻⁶ cm/s] | logPe PAMPA-GI (n = 9) ([3]; donor pH 6.8, acceptor pH 7.4, 37 °C, 4 h, Pe in cm/s, n.d. = not detected in the acceptor phase) | antioxidant activity (in words) [1] | half-life at 100 µM ([2]; PBS, pH 7.4, 37 °C) [h] | degradation rate constant k ([2]; pH 7.4, 37 °C) [h⁻¹] | aqueous stability at pH 1.2, 6.8, 7.4 (in words) [2] |
| --- | --- | --- | --- | --- | --- | --- | --- | --- | --- | --- | --- | --- | --- | --- | --- | --- |
| O=C1C[C@H](O)[C@@H](O)Cc2ccc(O)c(c2)-c2cc(ccc2O)C[C@H]1O [Compound 1, carpinontriol A] | 97.1 ± 8.9 ^a % | 97.4 ± 1.5% and 97.4 ± 1.5 ^#a % | 96.9 ± 1.2 ^a % | 70.5 ± 2.6% and 70.5 ± 2.6 ^#b % | 75.3 ± 3.0% and 75.3 ± 3.0 ^#b % | 71.5 ± 5.2% and 71.5 ± 5.2 ^#b % | 167 | 0.00415 | 0.00365 | 190 | 0.562 | – | only weak antioxidant activity | 166 | 0.00419 | – |
